Ends that are not written are not given here.
Key:
[1] = tested on: rd10 and rd10/Serpinf1−/− mice; assay: Electroretinography (ERG) a-wave and b-wave after peptide eye drops; format: in vivo, mouse; details: rd10 mice; daily eye drops of AlexaFl488-labelled peptide P15-P20, ERG at P21; n = 3 per condition
Source text: Fig. 5: Effect of daily eyedrops of PEDF peptides on ERG a-wave and b-wave retinal function (A and B) Representative ERG waveforms for rd10 (A) and rd10/Serpinf1^−/− (B) mice at P21 in response to a light flash (1 cd.s/m^2). Amplitude (y-axis) is plotted against time in milliseconds (ms, x-axis). Treatments are indicated to the right of each plot and are color coded, with control wild type C57Bl/6J mice without peptide treatment shown in blue. A-wave and b-wave are indicated by arrows. (C and D) Photoreceptor a-wave amplitudes. Averages of photoreceptor a-wave amplitudes for rd10 (C) and rd10/Serpinf1^−/− (D) mice as a function of light intensity (cd/s.m^2, x-axis). Responses of animals treated with 17-mer are shown in green, H105A in black, and vehicle (HBSS) in red. Wildtype responses are shown in blue. (E and F) Bipolar cell b-wave amplitudes. Averages of bipolar cell b-wave amplitudes for rd10 (E) and rd10/Serpinf1^−/− (F) mice as a function of light intensity (cd/s.m^2, x-axis), with treatments indicated as in panels (C) and (D). The number of mice evaluated for the data shown in Panels C-F were n = 8 for each rd10, rd10/Serpinf1^−/− and wild type. Each data point represents the average ± SD of each genotype, analyzed by unpaired t-test. Statistical significance between H105A and vehicle is indicated by ##p < 0.01, ###p < 0.001, ####p < 0.0001, and between H105A and 17-mer by **p < 0.01, ***p < 0.001, ****p < 0.0001.
Electroretinogram (ERG) for rd10 and rd10/Serpinf1^−/− mice were recorded in both eyes of each animal using an Espion E2 system with ColorDome (Diagnosys LLC) with a heated surface and mice were dark-adapted overnight as previously described ([29]). Mice were placed on the heated surface and electrodes were placed in the mouth and a subdermal platinum needle electrode was placed in the back of the mouse to serve as ground. Responses were elicited with increasing light impulses with intensity from 0.0001 to 10 cd-seconds per meter squared (cd.s/m^2). Amplitudes for a-wave were measured from stimulus to the trough of the a-wave and b-wave amplitudes were measured from a-wave to b-wave trough or peak. The values from the a and b waves for both eyes were exported to Microsoft Excel to obtained amplitude values for each mouse.
(§1) Figure S2. Effects of extending the timeline or administering eye drops of 17-mer[H105A] peptide every other day in rd10 mic e.
Eye drops of H105A peptide solution were administered to r d1 0 mice either daily (Fig. S2A) or every other day (Fi g. S 2D). A total of 5 µl of a solution containing H105A peptide at 1 mg/ml in HBSS were applied as eye drops. The vehicle HBSS was added as eye drops in the contralateral eyes. When eye […]
intensity light at P25 (Fig. S2C). When eye drops of H105A were added every other day, a rescue in the ONL thickness in r d10 mice compared to vehicle was also observed (Fi g. S 2E), with an improvement in a- […]
efficacy of peptide H105A eye drops either daily or every other day in an extended timeline to stabilize photoreceptor morphology and light response function loss in r d10 mice, however, these were less efficacious than daily H105A peptide eye drops. […]
(C) ERG of r d1 0 mice at P25 and treated as in Fi g. […] For ERG data shown, the number of mice evaluated were n =5 for rd10 and each data point corresponds to the average ± SD of each genotype by unpaired t-test. *p < 0.05, **p < 0.01, * ** p < 0 .001 , ****p < 0.0001. […]

[2] = tested on: rd10 and rd10/Serpinf1−/− mice; assay: In vivo photoreceptor cell death (PS externalization) by PSVue-550 fluorescence fundoscopy; parameters: species or system mouse
Description: Fig. 2: Effect of PEDF peptide eye drops on protection against photoreceptor cell death in rd10 and rd10/Serpinf1^−/− mice (A) Illustration of the experimental timeline of peptide application. Eye drops containing 5 μl of 17-mer, H105A, or R99A peptides in HBSS were administered daily to eyes of rd10 and rd10/Serpinf1^−/− mice from P15 to P20. Vehicle (HBSS) was applied in contralateral eyes. At P20, PSVue® was applied via eye drops, and fluorescence fundoscopy was conducted at P21 to assess photoreceptor cell death. RE and LE refer to the right and left eyes, respectively. (B) Fluorescence fundoscopy micrographs. Representative fluorescence fundoscopy images of retinas from mice treated as in Panel A with eyedrops of 1 mg/ml of each peptide. Quantification of fluorescence intensity was performed using ImageJ, with average intensity values corrected for background fluorescence from eyes that had not received PSVue or peptides. […] Statistical significance was determined by unpaired t-test (****p < 0.0001). […] Representative fluorescence fundoscopy micrographs showing retinas treated with varying concentrations of 17-mer and H105A peptides (0.0 mg/ml to 1.0 mg/ml) in rd10 and rd10/SerpinfT^−/− mice. Fluorescence intensity was quantified and analyzed using Sigmoidal interpolation in GraphPad. […]

[3] = tested on: rd10 and rd10/Serpinf1−/− mice; assay: Retinal histology (H&E), OS length and ONL thickness spider plots after peptide eye drops; format: in vivo, mouse; details: daily eye drops 1 mg/ml; rd10 and rd10/Serpinf1−/− mice; P21
Description: Fig. 4: Effect of eyedrops of 17-mer and H105A peptides on photoreceptor morphology of rd10 and rd10/Serpinf1−/− mice (A and B) Histological Evaluation. Representative microphotographs of retina sections from rd10 (A) and rd10/Serpinf1−/− (B) mice treated with 17-mer, H105A, or R99A peptides at 1 mg/ml, or with vehicle (HBSS), compared to wild type C57Bl/6J mice. Sections were stained with hematoxylin and eosin. Spider Plot illustrate the thickness of the outer nuclear layer (ONL) in rd10 (C) and rd10/Serpinf1−/− (D) mice. Five retinas per group were analyzed and each data point represents the average ± SEM per location relative to the optic nerve (ON), analyzed using One-way ANOVA. Statistics for comparisons between H105A and vehicle is indicated by #p < 0.05, #p < 0.05, ##p < 0.01, ###p < 0.001). Statistics for comparisons between H105A and 17-mer is indicated by *p < 0.05. Scale bar = 50 μm.
Both eyes were oriented before enucleation to allow sectioning along the dorsal/ventral axis. Enucleated eyes from rd10 and rd10 × Serpinf1^−/− mice were incised in the cornea and fixed in 2.5% glutaraldehyde for 20 min and then in 10% neutral buffered formalin at 4°C for at least 48 h, followed by paraffin embedding, sectioning, and staining with either H&E or immunofluorescence procedures, as previously described ([28]). For fluorescence microscopy, antibodies, and 0.1 μg/ml DAPI were used to immunostain and nuclei counterstain the sections, respectively. Antibodies used in the study are in Table S3. Images were acquired using a ZEIS 700 confocal microscope. Fluorescence intensity was quantified using ImageJ as previously described ([14], [26]).
To generate spider plots, the ONL thickness was measured from images acquired with light microscopy of the retina sections stained with H&E or images of retina sections stained with DAPI with a dorsal-ventral orientation. The ONL thickness in the entire retina sections was measured at 5 different positions from both sides of the optic nerve (ON) using ImageJ, as described before ([28]). Alternatively, for DAPI stained images, a customed macro implemented in ImageJ was used to select only the ONL.
as §1
Eye drops of H105A peptide solution were administered to r d1 0 mice either daily (Fig. S2A) or every other day (Fi g. S 2D). A total of 5 µl of a solution containing H105A peptide at 1 mg/ml in HBSS were applied as eye drops. The vehicle HBSS was added as eye drops in the contralateral eyes. […]
ONL thickness in r d10 mice compared to vehicle was also observed (Fi g. S 2E), with an improvement in a- […]
efficacy of peptide H105A eye drops either daily or every other day in an extended timeline to stabilize photoreceptor morphology and light response function loss in r d10 mice, however, these were less efficacious than daily H105A peptide eye drops.
(A) Scheme showing a timeline of peptide administration via daily eye drops of H105A peptide to r d10 mice between P15 and P2 4. […]
(B) Representative microphotographs of retinal cross sections of r d1 0 treated as in Fig. S2A and stained with hematoxylin and eosin are shown. […]
(D) Scheme showing a timeline of peptide administration via eye drops of H105A peptide to rd10 mice starting at P15 every other day until P23. Assays were at P25.
(E) Representative microphotographs of retinal cross sections of r d1 0 treated as in Fig. S2D and stained […]
average ± SD per location relative to the ON per genotype by unpaired t-test. *p < 0.05, […]
(F) ERG of r d1 0 mice at P25 and treated as in Fig. S2D were performed in response to a STR. […]

AlexaFl-QRTESIIARALYYDLIS-COOH [AlexaFl-488-H105A, H105A peptide conjugated to Alexa Fluor 488 dye]
neuroprotective activity of labelled peptides as assessed by ERG [1]: exhibited neuroprotective activity

AlexaFl-QRTESIIHRALYYDLIS-COOH [AlexaFl-488-17-mer, 17-mer conjugated to Alexa Fluor 488 dye]
neuroprotective activity of labelled peptides as assessed by ERG [1]: exhibited neuroprotective activity

QATESIIHRALYYDLIS [R99A]
PS externalization (PSVue-550 fundi fluorescence) vs vehicle (HBSS) eye drops ([2]; daily eye drops 5 μl of 1 mg/ml, P15 to P20, fundoscopy at P21, 5 eyes per condition): no significant efficacy
outer nuclear layer (ONL) thickness vs vehicle-treated or untreated eyes [3]: had no effect
photoreceptor outer segment (OS) length vs vehicle-treated or untreated eyes [3]: had no effect

SLGAEQRTESIIHRALYYDLISSPDIHGT [29-mer]
photoreceptor cell death (PSVue 550 fluorescence fundoscopy) relative to vehicle ([2]; daily eye drops 5 μl of 1 mg/ml in HBSS from P15, P21, n = 3 retinas per genotype): no rescue in photoreceptor cell death
